Source: ChEMBL document CHEMBL4346757, “Synthesis and biological evaluation of 7-methoxy-1-(3,4,5-trimethoxyphenyl)-4,5-dihydro-2H-benzo[e]indazoles as new colchicine site inhibitors” (Bioorg Med Chem Lett, 2019)

Tests used:
Type in all cases: functional
EKVX [1] = assay: Growth inhibition of human EKVX cells assessed as cell growth at 100 uM after 48 hrs by SRB assay relative to control; conditions: read-out: Activity
UO-31 = assay: Growth inhibition of human UO31 cells assessed as cell growth at 0.01 uM after 48 hrs by SRB assay relative to control; conditions: UO-31, 48 h, read-out: Activity
SK-MEL-2 = assay: Growth inhibition of human SK-MEL-2 cells assessed as cell growth at 10 uM after 48 hrs by SRB assay relative to control; conditions: SK-MEL-2, 48 h, read-out: Activity
MDA-MB-435 = assay: Growth inhibition of human MDA-MB-435 cells assessed as cell growth at 0.1 uM after 48 hrs by SRB assay relative to control; conditions: MDA-MB-435, 48 h, read-out: Activity
LOX IMVI [2] = assay: Growth inhibition of human LOXIMVI cells assessed as cell growth at 10 uM after 48 hrs by SRB assay relative to control; conditions: read-out: Activity
NCI-H23 = assay: Growth inhibition of human NCI-H23 cells assessed as cell growth at 1 uM after 48 hrs by SRB assay relative to control; conditions: NCI-H23, 48 h, read-out: Activity
NCI/ADR-RES = assay: Growth inhibition of human NCI-ADR-RES cells assessed as cell growth at 1 uM after 48 hrs by SRB assay relative to control; conditions: read-out: Activity
SN12C = assay: Cytotoxicity against human SN12C cells assessed as growth inhibition after 48 hrs by SRB assay
HCC 2998 [3] = assay: Growth inhibition of human HCC2998 cells assessed as cell growth at 1 uM after 48 hrs by SRB assay relative to control; conditions: HCC 2998, 48 h, read-out: Activity
HCT-15 [4] = assay: Growth inhibition of human HCT15 cells assessed as cell growth at 1 uM after 48 hrs by SRB assay relative to control; conditions: HCT-15, 48 h, read-out: Activity
HCT-15 [5] = assay: Growth inhibition of human HCT15 cells assessed as cell growth at 0.01 uM after 48 hrs by SRB assay relative to control; conditions: HCT-15, 48 h, read-out: Activity
NCI-H522 = assay: Cytotoxicity against human NCI-H522 cells assessed as growth inhibition after 48 hrs by SRB assay; conditions: NCI-H522, 48 h
MCF7 = assay: Growth inhibition of human MCF7 cells assessed as cell growth at 1 uM after 48 hrs by SRB assay relative to control; conditions: MCF7, 48 h, read-out: Activity
HCC 2998 [6] = assay: Growth inhibition of human HCC2998 cells assessed as cell growth at 0.1 uM after 48 hrs by SRB assay relative to control; conditions: HCC 2998, 48 h, read-out: Activity
BT-549 = assay: Growth inhibition of human BT549 cells assessed as cell growth at 10 uM after 48 hrs by SRB assay relative to control; conditions: BT-549, 48 h, read-out: Activity
UACC-62 = assay: Growth inhibition of human UACC62 cells assessed as cell growth at 0.1 uM after 48 hrs by SRB assay relative to control; conditions: UACC-62, 48 h, read-out: Activity
Malme-3M = assay: Growth inhibition of human MALME-3M cells assessed as cell growth at 1 uM after 48 hrs by SRB assay relative to control; conditions: read-out: Activity
T47D = assay: Growth inhibition of human T47D cells assessed as cell growth at 100 uM after 48 hrs by SRB assay relative to control; conditions: read-out: Activity
OVCAR-5 = assay: Growth inhibition of human OVCAR5 cells assessed as cell growth at 10 uM after 48 hrs by SRB assay relative to control; conditions: OVCAR-5, 48 h, read-out: Activity
EKVX [7] = assay: Growth inhibition of human EKVX cells assessed as cell growth at 10 uM after 48 hrs by SRB assay relative to control; conditions: read-out: Activity
LOX IMVI [8] = assay: Cytotoxicity against human LOXIMVI cells assessed as growth inhibition after 48 hrs by SRB assay
RPMI-8226 = assay: Growth inhibition of human RPMI8226 cells assessed as cell growth at 10 uM after 48 hrs by SRB assay relative to control; conditions: RPMI-8226, 48 h, read-out: Activity
A549 = assay: Growth inhibition of human A549/ATCC cells assessed as cell growth at 10 uM after 48 hrs by SRB assay relative to control; conditions: A549, 48 h, read-out: Activity
CCRF-CEM = assay: Cytotoxicity against human CCRF-CEM cells assessed as growth inhibition after 48 hrs by SRB assay
U-251 = assay: Cytotoxicity against human U251 cells assessed as growth inhibition after 48 hrs by SRB assay; conditions: U-251, 48 h
SF-539 = assay: Growth inhibition of human SF539 cells assessed as cell growth at 0.01 uM after 48 hrs by SRB assay relative to control; conditions: SF-539, 48 h, read-out: Activity
SK-OV-3 = assay: Growth inhibition of human SKOV3 cells assessed as cell growth at 100 uM after 48 hrs by SRB assay relative to control; conditions: SK-OV-3, 48 h, read-out: Activity
786-0 = assay: Cytotoxicity against human 786-0 cells assessed as growth inhibition after 48 hrs by SRB assay; conditions: 786-0, 48 h
HOP-92 = assay: Growth inhibition of human HOP92 cells assessed as cell growth at 0.01 uM after 48 hrs by SRB assay relative to control; conditions: HOP-92, 48 h, read-out: Activity
KM12 = assay: Growth inhibition of human KM12 cells assessed as cell growth at 0.01 uM after 48 hrs by SRB assay relative to control; conditions: KM12, 48 h, read-out: Activity
NCI-H322M = assay: Growth inhibition of human NCI-H322M cells assessed as cell growth at 100 uM after 48 hrs by SRB assay relative to control; conditions: read-out: Activity
[9] = read-out: LC50 (the source's name)
[10] = read-out: pLC50 (the source's name) (converted)

Structure (SMILES): COc1ccc2c(c1)CCc1n[nH]c(-c3cc(OC)c(OC)c(OC)c3)c1-2
- growth at 100 µM (EKVX [1]): -25%
- growth at 0.01 µM (UO-31): 42%
- growth at 10 µM (SK-MEL-2): 38%
- growth at 0.1 µM (MDA-MB-435): -39%
- growth at 10 µM (LOX IMVI [2]): 7%
- growth at 1 µM (NCI-H23): 7%
- growth at 1 µM (NCI/ADR-RES): -9%
- GI50 (SN12C; read-out: GI50): < 0.01 µM
- CC50 (SN12C; [9]): > 100 µM
- TGI (SN12C; read-out: TGI): 22 µM
- GI50 (SN12C; read-out: pGI50 (converted)): < 0.01 µM
- CC50 (SN12C; [10]): > 100 µM
- TGI (SN12C; read-out: pTGI (converted)): 21.9 µM
- growth at 1 µM (HCC 2998 [3]): 14%
- growth at 1 µM (HCT-15 [4]): 4%
- growth at 0.01 µM (HCT-15 [5]): 6%
- GI50 (NCI-H522; read-out: GI50): < 0.01 µM
- CC50 (NCI-H522; [9]): 46.9 µM
- TGI (NCI-H522; read-out: TGI): < 0.01 µM
- GI50 (NCI-H522; read-out: pGI50 (converted)): < 0.01 µM
- CC50 (NCI-H522; [10]): 46.8 µM
- TGI (NCI-H522; read-out: pTGI): < 0.01 µM
- growth at 1 µM (MCF7): 12%
- growth at 0.1 µM (HCC 2998 [6]): 11%
- growth at 10 µM (BT-549): 1%
- growth at 0.1 µM (UACC-62): 35%
- growth at 1 µM (Malme-3M): 44%
- growth at 100 µM (T47D): -72%
- growth at 10 µM (OVCAR-5): 31%
- growth at 10 µM (EKVX [7]): 37%
- GI50 (LOX IMVI [8]; read-out: GI50): < 0.01 µM
- CC50 (LOX IMVI [8]; [9]): 38.3 µM
- TGI (LOX IMVI [8]; read-out: TGI): 11.8 µM
- GI50 (LOX IMVI [8]; read-out: pGI50 (converted)): < 0.01 µM
- CC50 (LOX IMVI [8]; [10]): 38 µM
- TGI (LOX IMVI [8]; read-out: pTGI (converted)): 11.7 µM
- growth at 10 µM (RPMI-8226): 35%
- growth at 10 µM (A549): 11%
- GI50 (CCRF-CEM; read-out: GI50): < 0.01 µM
- CC50 (CCRF-CEM; [9]): > 100 µM
- TGI (CCRF-CEM; read-out: TGI): > 100 µM
- GI50 (CCRF-CEM; read-out: pGI50 (converted)): < 0.01 µM
- CC50 (CCRF-CEM; [10]): > 100 µM
- TGI (CCRF-CEM; read-out: pTGI): > 100 µM
- GI50 (U-251; read-out: GI50): < 0.01 µM
- CC50 (U-251; [9]): 51.3 µM
- TGI (U-251; read-out: TGI): 11.5 µM
- GI50 (U-251; read-out: pGI50 (converted)): < 0.01 µM
- CC50 (U-251; [10]): 51.3 µM
- TGI (U-251; read-out: pTGI (converted)): 11.5 µM
- growth at 0.01 µM (SF-539): -12%
- growth at 100 µM (SK-OV-3): -50%
- GI50 (786-0; read-out: GI50): < 0.01 µM
- CC50 (786-0; [9]): > 100 µM
- TGI (786-0; read-out: TGI): 11.5 µM
- GI50 (786-0; read-out: pGI50 (converted)): < 0.01 µM
- CC50 (786-0; [10]): > 100 µM
- TGI (786-0; read-out: pTGI (converted)): 11.5 µM
- growth at 0.01 µM (HOP-92): 39%
- growth at 0.01 µM (KM12): 14%
- growth at 100 µM (NCI-H322M): -21%
